ChEMBL document CHEMBL4507276 (2021)

How the values were obtained:
[1] = biological target: MAP kinase-activated protein kinase 2 (Homo sapiens) (UniProt P49137); conditions: Compound concentration 1000.0 nM
Homo sapiens = organism: Homo sapiens; experiment: HIV-1/H Cerep selectivity data (BI); conditions: Compound concentration 20.0 uM
[2] = biological target: Tyrosine-protein kinase HCK (Homo sapiens) (UniProt P08631); experiment: HCK Invitrogen selectivity data (BI); conditions: Compound concentration 3.0 uM
[3] = biological target: T1, Tyrosine-protein kinase ZAP-70 (Homo sapiens) (UniProt P43403); experiment: ZAP70 Invitrogen selectivity data (BI); conditions: Compound concentration 3.0 uM
T1 sequence (whole entry): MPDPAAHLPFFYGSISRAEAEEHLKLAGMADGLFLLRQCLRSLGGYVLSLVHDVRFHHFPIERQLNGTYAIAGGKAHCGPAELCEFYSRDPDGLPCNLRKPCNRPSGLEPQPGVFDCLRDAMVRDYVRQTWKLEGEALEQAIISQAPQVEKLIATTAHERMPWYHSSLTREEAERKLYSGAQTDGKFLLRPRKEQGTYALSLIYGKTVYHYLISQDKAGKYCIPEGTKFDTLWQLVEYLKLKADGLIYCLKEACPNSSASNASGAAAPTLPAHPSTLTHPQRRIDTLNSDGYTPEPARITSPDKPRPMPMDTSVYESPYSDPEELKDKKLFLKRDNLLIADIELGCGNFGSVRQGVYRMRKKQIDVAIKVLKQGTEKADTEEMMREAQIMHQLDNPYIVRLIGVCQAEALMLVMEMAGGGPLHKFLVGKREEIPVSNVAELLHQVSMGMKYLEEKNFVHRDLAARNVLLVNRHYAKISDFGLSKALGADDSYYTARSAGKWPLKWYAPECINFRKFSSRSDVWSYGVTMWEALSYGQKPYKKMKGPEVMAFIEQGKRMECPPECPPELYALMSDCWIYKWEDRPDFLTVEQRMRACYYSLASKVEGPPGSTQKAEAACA

[4] = biological target: Calcium/calmodulin-dependent protein kinase type II subunit alpha (Homo sapiens) (UniProt Q9UQM7); experiment: CAMK2ALPHA(H) Cerep selectivity data (BI); conditions: Compound concentration 20.0 uM
[5] = biological target: Hepatocyte growth factor receptor (Homo sapiens) (UniProt P08581); experiment: MET Invitrogen selectivity data (BI); conditions: Compound concentration 3.0 uM
[6] = biological target: SRSF protein kinase 2 (Homo sapiens) (UniProt P78362); experiment: SRPK2 Invitrogen selectivity data (BI); conditions: Compound concentration 3.0 uM
[7] = biological target: Cyclin-dependent kinase 5/CDK5 activator 1 (Homo sapiens) (UniProt Q00535+Q15078); experiment: CDK5/P35 Invitrogen selectivity data (BI); type: protein-complex assay; conditions: Compound concentration 3.0 uM
[8] = biological target: Serine/threonine-protein kinase PAK 4 (Homo sapiens) (UniProt O96013); experiment: PAK4 Invitrogen selectivity data (BI); conditions: Compound concentration 3.0 uM
[9] = biological target: Nociceptin receptor (Homo sapiens) (UniProt P41146); experiment: ORL1/H Cerep selectivity data (BI); conditions: Compound concentration 20.0 uM
[10] = biological target: Casein kinase II subunit alpha (Homo sapiens) (UniProt P68400); experiment: CSNK2A1 Invitrogen selectivity data (BI); conditions: Compound concentration 3.0 uM
[11] = biological target: Protein kinase C theta type (Homo sapiens) (UniProt Q04759); experiment: PRKCQ Invitrogen selectivity data (BI); conditions: Compound concentration 3.0 uM
[12] = biological target: Tyrosine-protein kinase Lyn (Homo sapiens) (UniProt P07948); experiment: LYN A Invitrogen selectivity data (BI); conditions: Compound concentration 3.0 uM
[13] = biological target: Mitogen-activated protein kinase 14 (Homo sapiens) (UniProt Q16539); experiment: P38ALPHA_CE Cerep selectivity data (BI); conditions: Compound concentration 20.0 uM
[14] = biological target: High affinity choline transporter 1 (Homo sapiens) (UniProt Q9GZV3); experiment: CHT1/H Cerep selectivity data (BI); conditions: Compound concentration 20.0 uM
[15] = system: Epidermal growth factor receptor (Homo sapiens), P00533 [T790M]; experiment: EGFR T790M Invitrogen selectivity data (BI); conditions: Compound concentration 3.0 uM
[16] = system: Leucine-rich repeat serine/threonine-protein kinase 2 (Homo sapiens), Q5S007 [G2019S]; experiment: LRRK2_G2019S Invitrogen selectivity data (BI); conditions: Compound concentration 3.0 uM
[17] = biological target: Protein-tyrosine kinase 2-beta (Homo sapiens) (UniProt Q14289); experiment: PTK2B Invitrogen selectivity data (BI); conditions: Compound concentration 3.0 uM
[18] = biological target: Sodium-dependent noradrenaline transporter (Homo sapiens) (UniProt P23975); experiment: NEUP/H Cerep selectivity data (BI); conditions: Compound concentration 20.0 uM
[19] = biological target: T2, Discoidin domain-containing receptor 2 (Homo sapiens) (UniProt Q16832); experiment: DDR2 Invitrogen selectivity data (BI); conditions: Compound concentration 3.0 uM
T2 sequence (whole entry): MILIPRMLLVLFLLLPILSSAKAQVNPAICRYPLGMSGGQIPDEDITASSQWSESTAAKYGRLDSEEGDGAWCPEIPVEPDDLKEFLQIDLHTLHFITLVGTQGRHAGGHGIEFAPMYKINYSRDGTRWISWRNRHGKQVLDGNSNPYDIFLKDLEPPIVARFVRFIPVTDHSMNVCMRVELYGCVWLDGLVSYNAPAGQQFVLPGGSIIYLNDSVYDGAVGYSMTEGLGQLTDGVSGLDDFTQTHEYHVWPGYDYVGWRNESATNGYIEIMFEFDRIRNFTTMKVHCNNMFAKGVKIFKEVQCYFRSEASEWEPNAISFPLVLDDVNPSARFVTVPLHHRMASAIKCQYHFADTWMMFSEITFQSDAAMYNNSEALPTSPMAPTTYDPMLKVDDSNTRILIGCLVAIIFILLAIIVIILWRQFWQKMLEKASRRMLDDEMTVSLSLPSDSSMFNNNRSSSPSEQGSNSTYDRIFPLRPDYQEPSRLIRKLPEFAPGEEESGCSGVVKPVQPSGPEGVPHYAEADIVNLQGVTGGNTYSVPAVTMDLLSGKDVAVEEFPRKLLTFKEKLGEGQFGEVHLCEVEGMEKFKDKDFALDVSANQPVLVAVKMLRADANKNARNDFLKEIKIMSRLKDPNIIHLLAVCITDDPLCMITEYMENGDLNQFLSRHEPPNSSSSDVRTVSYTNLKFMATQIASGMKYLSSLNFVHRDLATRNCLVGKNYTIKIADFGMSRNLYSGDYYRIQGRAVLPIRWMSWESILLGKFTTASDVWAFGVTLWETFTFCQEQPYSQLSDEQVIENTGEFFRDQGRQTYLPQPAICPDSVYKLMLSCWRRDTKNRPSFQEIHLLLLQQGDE

[20] = biological target: Focal adhesion kinase 1 (Homo sapiens) (UniProt Q05397); experiment: PTK2 Invitrogen selectivity data (BI); conditions: Compound concentration 3.0 uM
[21] = biological target: Prostacyclin receptor (Homo sapiens) (UniProt P43119); experiment: PGI2/H Cerep selectivity data (BI); conditions: Compound concentration 20.0 uM
[22] = biological target: Mitogen-activated protein kinase kinase kinase 9 (Homo sapiens) (UniProt P80192); experiment: MAP3K9 Invitrogen selectivity data (BI); conditions: Compound concentration 3.0 uM
[23] = biological target: Matrix metalloproteinase-9 (Homo sapiens) (UniProt P14780); experiment: MMP-9 (H) Cerep selectivity data (BI); conditions: Compound concentration 20.0 uM

Measured: residual activity

Sequence of Tyrosine-protein kinase HCK (Homo sapiens) (P08631 2-526 limits assumed): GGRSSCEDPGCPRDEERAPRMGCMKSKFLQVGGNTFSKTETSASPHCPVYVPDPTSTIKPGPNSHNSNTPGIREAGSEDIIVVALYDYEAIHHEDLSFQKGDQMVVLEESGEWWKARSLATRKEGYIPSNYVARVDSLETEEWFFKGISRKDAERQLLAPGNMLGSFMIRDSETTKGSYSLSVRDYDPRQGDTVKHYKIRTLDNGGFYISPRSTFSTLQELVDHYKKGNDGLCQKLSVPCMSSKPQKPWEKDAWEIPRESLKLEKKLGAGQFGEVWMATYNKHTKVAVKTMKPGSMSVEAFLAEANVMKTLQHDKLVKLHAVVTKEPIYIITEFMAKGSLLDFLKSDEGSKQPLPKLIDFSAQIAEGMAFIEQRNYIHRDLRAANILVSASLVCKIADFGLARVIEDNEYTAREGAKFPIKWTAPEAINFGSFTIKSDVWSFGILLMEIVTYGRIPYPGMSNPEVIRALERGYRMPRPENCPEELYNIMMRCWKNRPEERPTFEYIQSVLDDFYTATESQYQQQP
Sequence of Mitogen-activated protein kinase 14 (Homo sapiens) (Q16539 whole entry): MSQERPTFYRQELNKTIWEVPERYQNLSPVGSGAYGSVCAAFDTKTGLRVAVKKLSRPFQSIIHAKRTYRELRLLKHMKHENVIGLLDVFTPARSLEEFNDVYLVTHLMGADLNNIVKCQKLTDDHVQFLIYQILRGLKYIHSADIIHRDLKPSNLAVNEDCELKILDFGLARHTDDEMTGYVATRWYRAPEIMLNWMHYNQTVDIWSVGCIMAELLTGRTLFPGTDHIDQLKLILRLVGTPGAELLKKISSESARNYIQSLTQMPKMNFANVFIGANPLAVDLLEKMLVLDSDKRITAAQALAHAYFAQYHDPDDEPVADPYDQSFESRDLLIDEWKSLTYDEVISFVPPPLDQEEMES
Sequence of Prostacyclin receptor (Homo sapiens) (P43119 whole entry): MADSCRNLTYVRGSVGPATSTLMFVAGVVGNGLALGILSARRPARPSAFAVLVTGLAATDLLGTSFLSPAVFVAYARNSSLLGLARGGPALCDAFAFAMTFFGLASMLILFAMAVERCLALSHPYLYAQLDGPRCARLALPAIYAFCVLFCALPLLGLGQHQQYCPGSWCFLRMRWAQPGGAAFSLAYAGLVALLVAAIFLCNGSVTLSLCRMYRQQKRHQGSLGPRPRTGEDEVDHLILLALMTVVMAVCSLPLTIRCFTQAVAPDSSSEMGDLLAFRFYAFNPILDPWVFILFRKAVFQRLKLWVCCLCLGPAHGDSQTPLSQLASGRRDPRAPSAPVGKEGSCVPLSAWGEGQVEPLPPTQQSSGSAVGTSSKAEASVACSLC
Sequence of Leucine-rich repeat serine/threonine-protein kinase 2 (Homo sapiens), Q5S007 [G2019S] (Q5S007 whole entry G2019S): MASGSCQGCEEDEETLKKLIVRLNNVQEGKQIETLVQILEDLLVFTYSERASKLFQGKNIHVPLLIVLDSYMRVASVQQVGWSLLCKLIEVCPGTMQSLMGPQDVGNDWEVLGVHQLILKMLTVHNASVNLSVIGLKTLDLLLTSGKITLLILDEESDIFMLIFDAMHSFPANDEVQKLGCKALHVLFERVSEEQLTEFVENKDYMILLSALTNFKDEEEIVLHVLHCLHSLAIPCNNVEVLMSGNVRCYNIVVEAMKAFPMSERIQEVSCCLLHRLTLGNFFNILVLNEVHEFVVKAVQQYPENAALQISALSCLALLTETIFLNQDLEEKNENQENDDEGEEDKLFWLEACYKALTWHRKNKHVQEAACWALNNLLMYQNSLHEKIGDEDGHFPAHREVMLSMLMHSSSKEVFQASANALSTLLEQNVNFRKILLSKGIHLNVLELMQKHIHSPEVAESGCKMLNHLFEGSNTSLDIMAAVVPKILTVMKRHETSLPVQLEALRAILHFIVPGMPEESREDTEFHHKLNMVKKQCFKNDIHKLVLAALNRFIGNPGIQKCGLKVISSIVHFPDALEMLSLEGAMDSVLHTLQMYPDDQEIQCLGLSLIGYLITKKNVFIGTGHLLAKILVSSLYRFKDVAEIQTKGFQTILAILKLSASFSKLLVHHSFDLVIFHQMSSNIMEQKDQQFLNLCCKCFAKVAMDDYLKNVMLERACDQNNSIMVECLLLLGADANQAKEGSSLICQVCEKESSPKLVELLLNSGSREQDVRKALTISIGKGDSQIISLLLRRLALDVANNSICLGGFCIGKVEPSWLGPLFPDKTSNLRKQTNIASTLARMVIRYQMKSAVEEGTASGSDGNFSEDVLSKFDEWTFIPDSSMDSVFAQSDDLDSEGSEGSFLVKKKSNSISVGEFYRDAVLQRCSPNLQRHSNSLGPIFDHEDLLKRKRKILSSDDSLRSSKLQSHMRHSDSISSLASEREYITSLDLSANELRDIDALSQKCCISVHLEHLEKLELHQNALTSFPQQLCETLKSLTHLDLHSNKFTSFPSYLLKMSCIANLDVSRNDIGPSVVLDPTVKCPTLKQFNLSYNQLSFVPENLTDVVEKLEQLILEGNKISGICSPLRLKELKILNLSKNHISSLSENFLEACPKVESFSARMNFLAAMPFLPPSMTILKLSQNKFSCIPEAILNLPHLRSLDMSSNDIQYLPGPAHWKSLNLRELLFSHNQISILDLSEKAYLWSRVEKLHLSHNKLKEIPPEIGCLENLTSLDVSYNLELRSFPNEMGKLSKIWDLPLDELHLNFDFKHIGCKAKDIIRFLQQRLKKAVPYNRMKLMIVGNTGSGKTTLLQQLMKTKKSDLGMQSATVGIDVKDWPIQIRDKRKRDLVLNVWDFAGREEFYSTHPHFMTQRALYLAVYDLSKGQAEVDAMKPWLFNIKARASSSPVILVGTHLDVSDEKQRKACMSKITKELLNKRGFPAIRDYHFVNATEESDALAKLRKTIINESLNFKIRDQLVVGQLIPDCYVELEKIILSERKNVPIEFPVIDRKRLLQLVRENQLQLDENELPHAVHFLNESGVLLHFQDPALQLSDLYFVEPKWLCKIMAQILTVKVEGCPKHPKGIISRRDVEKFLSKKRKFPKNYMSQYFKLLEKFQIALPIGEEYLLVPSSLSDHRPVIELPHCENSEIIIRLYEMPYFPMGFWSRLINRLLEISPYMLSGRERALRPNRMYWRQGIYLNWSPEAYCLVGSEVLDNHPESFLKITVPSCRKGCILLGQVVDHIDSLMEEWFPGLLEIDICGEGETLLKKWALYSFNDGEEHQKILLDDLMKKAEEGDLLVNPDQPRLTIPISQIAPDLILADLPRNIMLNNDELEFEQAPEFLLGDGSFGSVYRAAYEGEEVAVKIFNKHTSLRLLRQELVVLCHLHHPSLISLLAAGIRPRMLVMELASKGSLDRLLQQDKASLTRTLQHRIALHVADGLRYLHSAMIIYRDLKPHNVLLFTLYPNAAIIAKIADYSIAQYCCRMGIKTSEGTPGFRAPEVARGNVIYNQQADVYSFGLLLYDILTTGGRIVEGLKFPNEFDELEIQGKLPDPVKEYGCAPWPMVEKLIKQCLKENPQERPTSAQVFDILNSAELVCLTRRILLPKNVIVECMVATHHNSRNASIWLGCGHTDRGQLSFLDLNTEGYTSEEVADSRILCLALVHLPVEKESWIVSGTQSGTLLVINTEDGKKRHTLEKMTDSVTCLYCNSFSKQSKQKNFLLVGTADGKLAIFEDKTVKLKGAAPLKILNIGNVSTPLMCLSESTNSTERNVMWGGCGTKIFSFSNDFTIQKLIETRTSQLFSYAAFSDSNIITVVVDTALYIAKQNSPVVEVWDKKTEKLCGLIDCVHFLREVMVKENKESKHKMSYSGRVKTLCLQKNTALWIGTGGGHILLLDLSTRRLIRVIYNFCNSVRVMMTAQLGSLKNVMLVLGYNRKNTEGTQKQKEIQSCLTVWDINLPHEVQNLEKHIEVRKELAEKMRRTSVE
Sequence of Nociceptin receptor (Homo sapiens) (P41146 whole entry): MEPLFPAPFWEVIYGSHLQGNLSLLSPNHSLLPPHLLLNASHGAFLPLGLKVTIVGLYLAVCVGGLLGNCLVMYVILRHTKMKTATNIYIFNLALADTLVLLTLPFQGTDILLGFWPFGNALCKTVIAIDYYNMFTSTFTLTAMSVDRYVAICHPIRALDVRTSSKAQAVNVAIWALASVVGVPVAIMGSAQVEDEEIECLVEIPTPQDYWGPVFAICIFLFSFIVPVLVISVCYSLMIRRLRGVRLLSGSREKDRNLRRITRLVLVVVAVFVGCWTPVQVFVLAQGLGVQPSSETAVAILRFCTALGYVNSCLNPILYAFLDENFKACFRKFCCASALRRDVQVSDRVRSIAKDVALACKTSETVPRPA
Sequence of Casein kinase II subunit alpha (Homo sapiens) (P68400 whole entry, looked up): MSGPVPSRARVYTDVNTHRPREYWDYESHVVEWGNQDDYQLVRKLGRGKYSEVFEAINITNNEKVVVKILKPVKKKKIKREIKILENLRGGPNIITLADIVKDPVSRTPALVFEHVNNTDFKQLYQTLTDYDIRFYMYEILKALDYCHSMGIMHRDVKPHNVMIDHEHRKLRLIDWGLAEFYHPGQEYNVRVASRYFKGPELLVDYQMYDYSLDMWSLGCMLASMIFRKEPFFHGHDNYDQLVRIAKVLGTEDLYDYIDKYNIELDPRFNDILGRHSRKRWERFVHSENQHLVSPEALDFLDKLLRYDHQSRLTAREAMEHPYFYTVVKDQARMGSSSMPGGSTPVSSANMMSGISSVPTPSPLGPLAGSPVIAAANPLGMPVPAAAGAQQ
Sequence of Tyrosine-protein kinase Lyn (Homo sapiens) (P07948 2-512 limits assumed): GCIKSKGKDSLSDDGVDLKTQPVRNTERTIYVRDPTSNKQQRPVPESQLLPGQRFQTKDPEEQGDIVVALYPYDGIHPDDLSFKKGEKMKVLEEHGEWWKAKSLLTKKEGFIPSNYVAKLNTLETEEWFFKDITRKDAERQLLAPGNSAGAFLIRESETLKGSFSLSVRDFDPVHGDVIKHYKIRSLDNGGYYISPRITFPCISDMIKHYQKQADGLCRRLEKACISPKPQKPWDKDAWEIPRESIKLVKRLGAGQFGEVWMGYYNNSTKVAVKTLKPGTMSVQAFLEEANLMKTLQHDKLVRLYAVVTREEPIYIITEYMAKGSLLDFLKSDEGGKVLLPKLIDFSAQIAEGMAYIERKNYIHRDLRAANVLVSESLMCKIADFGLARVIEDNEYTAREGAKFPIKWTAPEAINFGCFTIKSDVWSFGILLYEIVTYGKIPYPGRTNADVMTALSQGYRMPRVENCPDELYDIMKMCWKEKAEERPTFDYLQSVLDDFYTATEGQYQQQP

CN(C)C(=O)Cn1cc(-c2nc(C3(c4ccc(-c5cnc(N)nc5)cc4)CC3)no2)cn1 [BI 0153]
inactive: [1] 99%

CN(C)C(=O)Cn1cc(-c2nc([C@@](C)(c3ccc(-c4cnc(N)nc4)cc3)C3CC3)no2)cn1 [BI 665915]
inactive: Homo sapiens 100% | [2] 85% | [3] 96% | [4] 111% | [5] 97% | [6] 98% | [7] 100% | [8] 93.5% | [9] 91% | [10] 97% | [11] 93.5% | [12] 93% | [13] 113% | [14] 101% | [15] 104% | [16] 89% | [17] 86% | [18] 94% | [19] 96% | [20] 87.5% | [21] 94% | [22] 91% | [23] 83%
